From US20030229122A1, “Use of methylphenidate compounds to enhance memory” (Sention, Inc., priority 2000, published 2003)
Entries after “also recorded” stand apart in the source; their conditions may differ.

Experiments:
[1] = system: IA memory in the rat; assay: Inhibitory Avoidance (IA) task, retention latency in normal rats; format: in vivo
Method: An exemplary passive avoidance test utilizes an apparatus that consists of a lit chamber that can be separated from a dark chamber by a sliding door. At training, the animal is placed in the lit chamber for some period of time, and the door is opened. The animal moves to the dark chamber after a short delay—the latency—that is recorded. Upon entry into the dark chamber, the door is shut closed and a foot shock is delivered. Retention of the experience is determined after various time intervals, e.g., 24 or 48 hours, by repeating the test and recording the latency. The protocol is one of many variants of the passive avoidance procedures (for review, see Rush (1988) Behav Neural Biol 50:255).
The Inhibitory Avoidance (IA) task is a well-studied behavioral paradigm which can provide the researcher with a consistent and long-lasting measure of memory. The paradigm consists of one training trial and one retention trial. Test articles may be administered to the rats either before or after training. Improved memory, as a result of test compound administration, is evident as increased latency on the retention trial. The objective of the following experiments was to investigate the effects of methylphenidate on IA memory in the rat.
In this experiment, rats were injected with three different doses of methylphenidate thirty minutes prior to training on the IA task.
Rats were injected with 5 mg/kg of methylphenidate and trained on the IA task.
In this experiment, the time of drug administration was varied in order to determine the optimal pre-training drug administration time.
This experiment was conducted in order to determine whether the enhanced retention observed in Experiment 2 was long-lasting. Rats received a second retention test one week after the first retention test. No additional training or drug was administered to the animals in the interim period.
In the next experiment, we investigated whether the performance of amnesic rats could be improved by administration of methylphenidate. In this experiment, control rats and rats with lesions of the fornix received injections of either saline or methylphenidate (5 mg/kg), and one hour later, were tested on the IA task.

[2] = system: rats with lesions of the fornix; assay: Inhibitory Avoidance (IA) task in rats with lesions of the fornix (amnesic rats); format: in vivo, rat; conditions: 5 mg/kg, tested one hour after injection
Description: Applicants have previously described an animal model for studying fornix-mediated memory consolidation. See, for example, Taubenfield et al., Supra. The fornix-lesioned animals can be used for drug screening, e.g., to identify dosages of the subject compositions which enhance memory consolidation. The lesioned mammal can have a lesion of the fornix or a related brain structure that disrupts memory consolidation (e.g., perirhinal cortex, amygdala, medial septal nucleus, locus coeruleus, hippocampus, mammillary bodies). Lesions in the mammal can be produced by mechanical or chemical disruption. For example, the fornix lesion can be caused by surgical ablation, electrolytic, neurotoxic and other chemical ablation techniques, or reversible inactivation such as by injection of an anesthetic, e.g., tetrodotoxin or lidocaine, to temporarily arrest activity in the fornix.
In one embodiment, the animal can be a rat. Briefly, the animals are anesthetized, e.g., with intraperitoneal injections of a ketamine-xylazine mixture and positioned in a Kopf stereotaxic instrument. A sagittal incision is made in the scalp and a craniotomy is performed extending 2.0 mm posterior and 3.0 mm lateral from Bregma. […]

COC(=O)C(c1ccccc1)C1CCCCN1 (stereo not drawn) [methylphenidate, methyl α-phenyl-2-piperidineacetate]
IA performance of normal rats (FIG. 3) ([1]; normal control rats, 5 mg/kg, tested one hour after injection, post hoc p<0.05, 5 mg/kg): dramatically enhanced; also recorded: significantly enhanced relative to all other experimental groups
retention on the IA task (FIG. 1) ([1]; rats, 5 mg/kg injected thirty minutes prior to training): improved retention
optimal pre-training drug administration time ([1]; rats, 5 mg/kg, time of administration varied): most effective when administered to the rats one hour prior to training
retention of the IA task, verifying experiment (FIG. 2) ([1]; rats, 5 mg/kg, unpaired t-test p<0.03): significantly improved retention
retention on the IA task (FIG. 1) ([1]; rats, 10 mg/kg injected thirty minutes prior to training): no effect
retention on the IA task (FIG. 1) ([1]; rats, 15 mg/kg injected thirty minutes prior to training): no effect
long-term retention, second retention test ([1]; rats, one week after the first retention test, no additional training or drug, t(54)=2.358, p<0.0220): still significantly enhanced
IA performance of fornix lesion rats (FIG. 3) [2]: appeared to improve; also recorded: not significantly different from normal, saline injected animals
